Results on 30 molecules are retold here after patent publication US8841291B2, “Selective hydroxamic acid based MMP-12 and MMP-13 inhibitors” (Novartis AG, priority 2008, dated 2014).

One assay has as its target T1, Gelatinase (MMP-2) (Homo sapiens, UniProt P08253).
T1 sequence (P08253 110-660): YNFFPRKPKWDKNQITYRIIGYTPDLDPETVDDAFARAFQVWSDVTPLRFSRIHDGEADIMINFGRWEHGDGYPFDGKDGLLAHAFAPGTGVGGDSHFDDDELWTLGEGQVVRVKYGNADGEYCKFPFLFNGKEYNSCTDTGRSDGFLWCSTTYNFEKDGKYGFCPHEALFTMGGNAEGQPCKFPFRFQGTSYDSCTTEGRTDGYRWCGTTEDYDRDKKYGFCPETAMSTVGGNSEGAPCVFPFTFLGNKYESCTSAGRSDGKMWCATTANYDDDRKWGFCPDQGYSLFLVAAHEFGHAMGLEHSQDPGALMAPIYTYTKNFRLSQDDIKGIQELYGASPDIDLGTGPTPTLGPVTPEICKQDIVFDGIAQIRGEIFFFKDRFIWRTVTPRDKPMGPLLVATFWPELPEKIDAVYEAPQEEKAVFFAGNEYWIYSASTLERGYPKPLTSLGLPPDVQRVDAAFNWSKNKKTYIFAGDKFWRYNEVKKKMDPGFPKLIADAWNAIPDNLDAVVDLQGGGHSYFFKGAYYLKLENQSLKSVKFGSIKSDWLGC
In words: Gelatinase (MMP-2) inhibitory activity, fluorogenic peptide substrate assay. The settings on record: substrate 5 μM, 60 min preincubation, 20-25° C.; read-out: MMP2 IC50. In kind it is biochemical.

For another assay, the target named is Collagenase-3 (MMP-13) (Homo sapiens, UniProt P45452). Description: Collagenase-3 (MMP-13) inhibitory activity, fluorogenic peptide substrate assay. The settings on record: recombinant pro-collagenase-3 activated with 1 mM APMA; read-out: MMP13 IC50. It is filed as biochemical.

Procedure for Collagenase-3 (MMP-13): (§1) Stock solutions of inhibitors (0.03 mM-3 mM) are also prepared in DMSO. The inhibitors are diluted into the assay solutions, and the controls use an equal volume of DMSO so that the final DMSO concentration from the inhibitor and substrate dilutions in all assays is 1.0%. Assays are performed in an assay buffer (100 mM sodium chloride, 10 μM ZnCl. Sub 2, 10 mM CaCl2, 100 mM Tris-Cl pH7.5, 0.05% Brij-35), containing 1.0% DMSO from the substrate and inhibitor additions. The substrate concentration used in the assays is 5 μM. The assays are carried out at 20-25° C. […] The reaction mixtures are added in duplicate into appropriate wells of a 384-well assay plate. The reaction mixtures are preincubated with the inhibitors for 60 minutes The reactions are started by the addition of MMP substrate, and the fluorescence intensity changes are measured after 60 minutes The apparent enzyme activity in the presence of an inhibitor is then compared with that in the absence of any inhibitor to determine the inhibition effect of the inhibitor.
Collagenase-3 (MMP-13) inhibitory activity is determined as described above. Recombinant pro-collagenase-3 is activated with 1 mM APMA, and stored in the assay buffer after extensive dialysis in the assay buffer.
Procedure for Gelatinase (MMP-2): as §1

With `CC(C)[C@H](C(=O)NO)N(CCOc1ccccc1)S(=O)(=O)c1ccc2ccccc2c1` [Example 30, N-(2-phenoxyethyl)-N-(naphthalene-2-sulfonyl)-D-valine hydroxamic acid], the IC50 (commonly the concentration needed to halve the response being measured) worked out at 61.2 nM on Gelatinase (MMP-2) and 2.1 nM at Collagenase-3 (MMP-13). Turning to `CC(C)CCN([C@@H](C(=O)NO)C1CCN(C(=O)OC(C)(C)C)CC1)S(=O)(=O)c1ccc2ccccc2c1` [Example 82, 4-{Hydroxycarbamoyl-[(3-methyl-butyl)-(naphthalene-2-sulfonyl)-amino]-methyl}-piperidine-1-carboxylic acid tert-butyl ester], the half-maximal inhibitory concentration (IC50) at Gelatinase (MMP-2) and on Collagenase-3 (MMP-13) was less than 0.3 nM each time.

With `CC(C)CCN(C1(C(=O)NO)CCCC1)S(=O)(=O)c1ccc2ccccc2c1` [Example 70, 1-[(3-Methyl-butyl)-(naphthalene-2-sulfonyl)-amino]-cyclopentanecarboxylic acid hydroxyamide], the values for the half-inhibitory concentration (IC50) at Gelatinase (MMP-2) and on Collagenase-3 (MMP-13) were 940 nM and 212 nM, respectively. Take `COc1c(S(=O)(=O)N2CC=CC[C@@H]2C(=O)NO)ccc2ccccc12` [Example 78, (R)-1-(1-Methoxy-naphthalene-2-sulfonyl)-1,2,3,6-tetrahydro-pyridine-2-carboxylic acid hydroxyamide]: the 50% inhibitory concentration (IC50) on Gelatinase (MMP-2) worked out at 19.9 nM; at Collagenase-3 (MMP-13), 2.1 nM. On the same counts, the results for `Cc1ccc(Nc2ccc3cc(S(=O)(=O)N(Cc4ccccc4)[C@@H](C(=O)NO)C(C)C)ccc3c2)cc1` [Example 43, 2-[Benzyl-(6-p-tolylamino-naphthalene-2-sulfonyl)-amino]-N-hydroxy-3-methyl-butyramide] are greater than 300 nM and 118 nM. On the same counts, the results for `CC(C)CCN([C@H](Cc1ccc(OCc2ccccc2)cc1)C(=O)NO)S(=O)(=O)c1ccc2ccccc2c1` [Example 25, (R)-3-(4-Benzyloxy-phenyl)-N-hydroxy-2-[(3-methyl-butyl)-(naphthalene-2-sulfonyl)-amino]-propionamide] are 1960 nM and 44.1 nM.

Take `CC(C)(C)[C@@H](NS(=O)(=O)c1ccc2ccccc2c1)C(=O)NO` [Example 93, (R)—N-Hydroxy-3,3-dimethyl-2-(naphthalene-2-sulfonylamino)-butyramide]: the 50% inhibitory concentration (IC50) is 600 nM at Gelatinase (MMP-2) and 90 nM on Collagenase-3 (MMP-13). For `C=CC1=CCN(S(=O)(=O)c2ccc3ccccc3c2)[C@@H](C(=O)NO)C1` [Example 44, (R)-1-(Naphthalene-2-sulfonyl)-4-vinyl-1,2,3,6-tetrahydro-pyridine-2-carboxylic acid hydroxyamide], the half-inhibitory concentration (IC50) on Gelatinase (MMP-2) was 30.1 nM; at Collagenase-3 (MMP-13), 1.8 nM. For `CC(C)CCNc1ccc2ccc(S(=O)(=O)N(CCC(C)C)[C@@H](C(=O)NO)C(C)C)cc2c1` [Example 57, N-Hydroxy-3-methyl-2-{(3-methyl-butyl)-[7-(3-methyl-butylamino)-naphthalene-2-sulfonyl]-amino}-butyramide], the results for the half-maximal inhibitory concentration (IC50) on Gelatinase (MMP-2) and on Collagenase-3 (MMP-13) were greater than 3000 nM and 1580 nM, respectively. Regarding “(R)-1-(2,3,4a,8a-Tetrahydro-benzo[1,4]dioxine-6-sulfonyl)-1,2,3,6-tetrahydro-pyridine-2-carboxylic acid hydroxyamide [Example 95]”, the IC50 on Collagenase-3 (MMP-13) is 2.6 nM. Take `O=C(NO)[C@H]1CCCCCN1S(=O)(=O)c1ccc2ccccc2c1` [Example 33, (R)-1-(Naphthalene-2-sulfonyl)-azepane-2-carboxylic acid hydroxyamide]: the figures for the IC50 at Gelatinase (MMP-2) and at Collagenase-3 (MMP-13) were 74.5 nM and 8.7 nM, respectively. Take `CSCC[C@H](C(=O)NO)N(CCC(C)C)S(=O)(=O)c1ccc2ccccc2c1` [Example 20, (R)—N-Hydroxy-2-[(3-methyl-butyl)-(naphthalene-2-sulfonyl)-amino]-4-methylsulfanyl-butyramide]: the IC50 on Gelatinase (MMP-2) was found to be 12.1 nM; on Collagenase-3 (MMP-13) it was 0.3 nM. With `CC(C)CCN(C(C)(C)C(=O)NO)S(=O)(=O)c1ccc2ccccc2c1` [Example 65, N-Hydroxy-2-methyl-2-[(3-methyl-butyl)-(naphthalene-2-sulfonyl)-amino]-propionamide], the 50% inhibitory concentration (IC50) at Gelatinase (MMP-2) is 2860 nM; on Collagenase-3 (MMP-13), 2260 nM.

Turning to `CC(C)(NS(=O)(=O)c1ccc2ccccc2c1)C(=O)NO` [Example 12, N-Hydroxy-2-methyl-2-(naphthalene-2-sulfonylamino)-propionamide], the half-inhibitory concentration (IC50) was 793 nM at Gelatinase (MMP-2) and 761 nM at Collagenase-3 (MMP-13). On the same counts, the results for `C=CCCN([C@H](CC=C)C(=O)NO)S(=O)(=O)c1ccc2ccccc2c1` [Example 4, (R)-2-[But-3-enyl-(naphthalene-2-sulfonyl)-amino]-pent-4-enoic acid hydroxyamide] are 50.7 nM and 0.7 nM. As for `CC(C)CCN(C1(C(=O)NO)CC1)S(=O)(=O)c1ccc2ccccc2c1` [Example 73, 1-[(3-Methyl-butyl)-(naphthalene-2-sulfonyl)-amino]-cyclopropanecarboxylic acid hydroxyamide], the 50% inhibitory concentration (IC50) on Gelatinase (MMP-2) was 402 nM; on Collagenase-3 (MMP-13), 35 nM. Take `O=C(NO)[C@H]1CCCN1S(=O)(=O)c1ccc2ccccc2c1` (stereo in doubt) [Example 52, 1-(Naphthalene-2-sulfonyl)-pyrrolidine-2-carboxylic acid hydroxyamide]: the IC50 came to 350 nM on Gelatinase (MMP-2) and 293 nM on Collagenase-3 (MMP-13).

With `CC(C)[C@H](C(=O)NO)N(CCOc1ccccc1Cl)S(=O)(=O)c1ccc2ccccc2c1` [Example 64, N-(2-(2-chlorophenoxy)ethyl)-N-(naphthalene-2-sulfonyl)-D-valine hydroxamic acid], the figures for the 50% inhibitory concentration (IC50) at Gelatinase (MMP-2) and at Collagenase-3 (MMP-13) were 898 nM and 16.1 nM, respectively. On to `CC(C)[C@H](C(=O)NO)N(CCOc1ccc(F)cc1)S(=O)(=O)c1ccc2ccccc2c1` [Example 41, N-(2-(4-fluorophenoxy)ethyl)-N-(naphthalene-2-sulfonyl)-D-valine hydroxamic acid], for which the IC50 at Gelatinase (MMP-2) came out at 1130 nM; on Collagenase-3 (MMP-13) it was 38.7 nM. Turning to `CC(C)CCN([C@@H](C(=O)NO)C(C)C)S(=O)(=O)c1ccc2ccc(N)cc2c1` [Example 84, 2-[(7-Amino-naphthalene-2-sulfonyl)-(3-methyl-butyl)-amino]-N-hydroxy-3-methyl-butyramide], the IC50 at Gelatinase (MMP-2) is greater than 1000 nM; on Collagenase-3 (MMP-13), 52.1 nM. `CN1CCOc2cc(S(=O)(=O)N3CC=CC[C@@H]3C(=O)NO)ccc21` [Example 94, (R)-1-(4-Methyl-3,4-dihydro-2H-benzo[1,4]oxazine-7-sulfonyl)-1,2,3,6-tetrahydro-pyridine-2-carboxylic acid hydroxyamide]: at Collagenase-3 (MMP-13), the IC50 worked out at 37 nM. Take `CC(=O)Nc1ccc2ccc(S(=O)(=O)N(CCC(C)C)[C@@H](C(=O)NO)C(C)C)cc2c1` [Example 61, 2-[(7-Acetylamino-naphthalene-2-sulfonyl)-(3-methyl-butyl)-amino]-N-hydroxy-3-methyl-butyramide]: the IC50 is 22.8 nM at Gelatinase (MMP-2) and 0.5 nM at Collagenase-3 (MMP-13). `O=C(NO)[C@H]1CCCCN1S(=O)(=O)c1cnc2ccccc2c1` [Example 50, (R)-1-(Quinoline-3-sulfonyl)-piperidine-2-carboxylic acid hydroxyamide]: the IC50 at Gelatinase (MMP-2) was 975 nM; at Collagenase-3 (MMP-13), 132 nM. On the same counts, the results for `CC(C)(C)OC(=O)N1CCC([C@@H](NS(=O)(=O)c2ccc3ccccc3c2)C(=O)NO)CC1` [Example 74, 4-[Hydroxycarbamoyl-(naphthalene-2-sulfonylamino)-methyl]-piperidine-1-carboxylic acid tert-butyl ester] are 0.4 nM and 0.4 nM. Take `O=C(NO)C1(NS(=O)(=O)c2ccc3ccccc3c2)CCCCC1` [Example 19, 1-(Naphthalene-2-sulfonylamino)-cyclohexanecarboxylic acid hydroxyamide]: the concentration for half-maximal inhibition (IC50) was 451 nM at Gelatinase (MMP-2) and 727 nM at Collagenase-3 (MMP-13). With `CC(=O)N(CCC(C)C)c1ccc2ccc(S(=O)(=O)N(CCC(C)C)[C@@H](C(=O)NO)C(C)C)cc2c1` [Example 71, 2-[{7-[Acetyl-(3-methyl-butyl)-amino]-naphthalene-2-sulfonyl}-(3-methyl-butyl)-amino]-N-hydroxy-3-methyl-butyramide], the half-maximal inhibitory concentration (IC50) on Gelatinase (MMP-2) and on Collagenase-3 (MMP-13) was greater than 30000 nM each time. For `CC1(C)SCCN(S(=O)(=O)c2ccc3ccccc3c2)[C@H]1C(=O)NO` [Example 90], the figures for the IC50 at Gelatinase (MMP-2) and on Collagenase-3 (MMP-13) were 50.7 nM and less than 0.3 nM, respectively. For the molecule `CC(C)[C@H](C(=O)NO)N(CCCc1ccccc1)S(=O)(=O)c1ccc2cc(N)ccc2c1` [Example 32, 2-[(6-Amino-naphthalene-2-sulfonyl)-(3-phenyl-propyl)-amino]-N-hydroxy-3-methyl-butyramide], the half-inhibitory concentration (IC50) stood at 82.2 nM at Gelatinase (MMP-2) and 1 nM on Collagenase-3 (MMP-13). For `O=C(NO)[C@H]1CC=CCN1S(=O)(=O)c1ccc(N2CCOCC2)nc1` [Example 96, (R)-1-(6-Morpholin-4-yl-pyridine-3-sulfonyl)-1,2,3,6-tetrahydro-pyridine-2-carboxylic acid hydroxyamide], the half-inhibitory concentration (IC50) at Collagenase-3 (MMP-13) was determined as 326 nM. Regarding `COc1ccc(S(=O)(=O)N2CC=CC[C@@H]2C(=O)NO)cc1OC` [Example 97, (R)-1-(3,4-Dimethoxy-benzenesulfonyl)-1,2,3,6-tetrahydro-pyridine-2-carboxylic acid hydroxyamide], the IC50 at Collagenase-3 (MMP-13) came to 10200 nM.
